Test results as given in patent publication US20250368624A1, “M24B AMINOPEPTIDASE INHIBITORS FOR CARD8 INFLAMMASOME ACTIVATION” (Memorial Sloan-Kettering Cancer Center, priority 2022, published 2025).

What was measured:
N/TERT-1 keratinocytes = experiment: Cell viability of N/TERT-1 keratinocytes (NLRP1 inflammasome); format: cell-based, human; details: VbP 10 μM, CQ compounds 20 μM, 24 h, CTG
Experimental: Cell Culture. HEK293T, THP-1, RAW264.7 cells were purchased from ATCC. MV4;11, OCI-AML2 cells were purchased from DSMZ. N/TERT1 cells were a gift from the Rheinwald Lab (Dickson et al., 2000). HEK293T and RAW264.7 cells were grown in Dulbecco's Modified Eagle's Medium (DMEM) with L-glutamine and 10% fetal bovine serum (FBS). N/TERT1 cells were grown in Keratinocyte serum free medium (KSFM) supplemented with 1× penicillin/streptomycin, bovine pituitary extract (25 μg/ml) and epidermal growth factor (EGF) (0.2 ng/ml). All other cell lines were grown in Roswell Park Memorial Institute (RPMI) medium 1640 with L-glutamine and 10% fetal bovine serum (FBS). All cells were grown at 37° C. in a 5% CO2 atmosphere incubator. Cell lines were regularly tested for mycoplasma using the MycoAlert™ Mycoplasma Detection Kit (Lonza).
(§1) CellTiter-Glo cell viability and CytoTox-Fluor cell death assays. Cells were plated (2,000 cells per well) in white, 384-well clear-bottom plates (Corning) using an EL406 Microplate Washer/Dispenser (BioTek) in 25 μL final volume of medium. To the cell plates were added compounds at different concentrations using a pintool (CyBio) and the plates were allowed to incubate in the incubator. After incubation for indicated times, CytoTox-Fluor reagent (Promega, G9262) was added according to the manufacturer's protocol. The assay plates were then incubated for another 30 min before fluorescence was recorded using a Cytation 5 Cell Imaging Multi-Mode Reader (BioTek). Next, CellTiter-Glo reagent (Promega, G7573) was subsequently added to the assay plates following the manufacturer's protocol. Assay plates were shaken on an orbital shaker for 2 min and incubated at 25° C. for 10 min. Luminescence was then read using a Cytation 5 Cell Imaging Multi-Mode Reader (BioTek).

[1] = tested on: primary bone marrow-derived macrophages (BMDMs) and mouse RAW264.7 cells; experiment: LDH release and GSDMD cleavage in BMDMs and RAW264.7 cells (mouse NLRP1); format: cell-based; details: VbP 10 μM, CQ31/CQ80 20 μM, 24 h
Experimental: Mouse BMDM isolation and culture. Bone marrow was harvested from the femurs and tibias of 7-12-week-old C57BL/6J mice. Briefly, femurs and tibias were harvested from mice and crushed with a mortar and pestle in cold 1×PBS supplemented with 2.5% FBS. The mixture was passed through a 70-μm nylon cell strainer. RBCs were lysed for 4-5 min on ice in 1×RBC lysis buffer (Biolegend) and cells were centrifuged at 300×g for 5 min at 4° C. The cell pellet was washed in cold 1×PBS supplemented with 2.5% FBS before being passed again through in a 70-μm nylon cell strainer and counted. Counted cells were plated on non-tissue culture 10-cm plates at 5-10×10^6 cells per plate in DMEM supplemented with 10% FBS and 15-20% L-cell media. Cells were incubated at 37° C. for 6 days before replating and assaying as indicated.
LDH cytotoxicity and immunoblotting assays. HEK293T cells were transiently transfected and treated with inhibitors as indicated. MV4;11, OCI AML2, THP-1, and RAW264.7 cells were plated in 12-well culture plates at 5×10^5 cells/well and treated as indicated. Supernatants were analyzed for LDH activity using the Pierce LDH Cytotoxicity Assay Kit (Life Technologies). LDH activity was quantified relative to a lysis control where cells were lysed in 80 μL of a 9% Triton X-100 solution. For immunoblotting, cells were washed 2× in PBS (pH=7.4), resuspended in PBS, and lysed by sonication. Protein concentrations were determined and normalized using the DCA Protein Assay kit (Bio-Rad). The samples were separated by SDS-PAGE, immunoblotted, and visualized using the Odyssey Imaging System (Li-Cor).

recombinant human PEPD = recombinant human PEPD (Homo sapiens (Human), UniProt P12955); experiment: PEPD substrate assay (Ala-Pro cleavage, L-alanine assay kit); format: biochemical; details: 50 nM recombinant human PEPD, Ala-Pro 40 μM, 25° C.
Experimental: Protein purification. Human prolidase (PEPD) was generated and purified. XPNPEP1 in pET15-b containing a 6× His tag was expressed in E. coli Rosetta DE3 cells.
Substrate assays. For the PEPD assay, a solution of substrate (Ala-Pro) was prepared in DMSO. 24 μL of 50 nM recombinant human PEPD were added to a 384-well, black, clear-bottom plate (Corning) with 1 μL dipeptide Ala-Pro (final conc. 40 μM). […] For the AMC reporter assays, experiments were performed with cell lysates. 5 μL solution of substrate (2.5 mM Ala-AMC) was added the mixture of 10 μL HEK293T cell lysates (2.5 mg/ml) and 10 μL of indicated compounds in a 384-well, black, clear-bottom plate (Corning) to initiate the reaction. Substrate cleavage was measured as increasing fluorescence signal (Ex/Em: 380/460 nm) recorded at 25° C. for 20 mins. […] H-Lys(abz)-Pro-Pro-pNA substrate was added to a final concentration of 100 μM, and fluorescence was monitored (Ex/Em: 320/410) for 60 mins.

XPNPEP1 = XPNPEP1 (Homo sapiens (Human), UniProt Q9NQW7); experiment: XPNPEP1 substrate assay (H-Lys(abz)-Pro-Pro-pNA); format: biochemical; details: XPNPEP1 3.5 nM, substrate 100 μM, 60 mins
Experimental: Protein purification. Human prolidase (PEPD) was generated and purified. XPNPEP1 in pET15-b containing a 6× His tag was expressed in E. coli Rosetta DE3 cells. Cells were induced with IPTG for 16 h at 37° C., pelleted and lysed in buffer A (20 mM Tris-HCl (pH 7.9), 500 mM NaCl, and 10% (v/v) glycerol) by sonication. Affinity purification chromatography was performed using TALON resin and according to previously published protocols (Li et al., 2008).
Substrate assays. For the PEPD assay, a solution of substrate (Ala-Pro) was prepared in DMSO. 24 μL of 50 nM recombinant human PEPD were added to a 384-well, black, clear-bottom plate (Corning) with 1 μL dipeptide Ala-Pro (final conc. 40 μM). Alanine liberated was measured as increasing fluorescence signal (Resorufin, Ex/Em: 535/587 nm) recorded at 25° C. using an L-alanine assay kit (Abcam, ab83394) at 25° C. according to manufacturer's instructions. For the AMC reporter assays, experiments were performed with cell lysates. 5 μL solution of substrate (2.5 mM Ala-AMC) was added the mixture of 10 μL HEK293T cell lysates (2.5 mg/ml) and 10 μL of indicated compounds in a 384-well, black, clear-bottom plate (Corning) to initiate the reaction. Substrate cleavage was measured as increasing fluorescence signal (Ex/Em: 380/460 nm) recorded at 25° C. for 20 mins. For XPNPEP1 enzymes (XPNPEP1 3.5 nM) were plated on a black 384-well clear bottom plate and treated with the indicated doses of compounds. H-Lys(abz)-Pro-Pro-pNA substrate was added to a final concentration of 100 μM, and fluorescence was monitored (Ex/Em: 320/410) for 60 mins.

MV4;11 WT cells = experiment: CellTiter-Glo cell viability, WT MV4;11 cells; format: cell-based; details: Homo sapiens, MV4-11; 24 h, CTG
Experimental: as §1

MV4;11 CASP1-/- cells = experiment: CellTiter-Glo cell viability, CASP1-/- MV4;11 cells; format: cell-based; details: Homo sapiens, MV4-11; 24 h, CTG
Experimental: Cloning. CASP1^−/− MV4;11 cells^12; CARD8^−/− MV4;11, THP-1, OCI-AML2 cells^14; DPP8/9^−/− THP-1^12; PEPD^−/−, XPNPEP1^−/−, PEPD XPNPEP1^−/− THP-1 cells were generated. Plasmids for CARD8 variants, CASP1, GSDMD, dTAG-CARD8^ZUC were cloned as described previously (Hollingsworth et al., 2021; Johnson et al., 2018; Sharif et al., 2021).
as §1

OCI-AML2 cells = experiment: Propidium iodide uptake, OCI-AML2 cells; format: cell-based; details: 6.25 μM, compared to CQ31
Experimental: Propidium iodideflux analysis. 2×10^4 MV4;11 or OCI-AML2 cells were plated in 384-well, black, clear-bottom plate (Corning) in RPMI medium. Cells were then treated as indicated and propidium iodide (PI) was added at a final concentration of 10 μM. PI fluorescence was measured at (Ex/Em: 535/617 nm) recorded at 37° C. every 5 mins in a Cytation 5 Cell Imaging Multi-Mode Reader (BioTek). The obtained measurements were baseline corrected to vehicle/DMSO and normalized to maximum response.

XPNPEP1, sequence (Q9NQW7 whole entry): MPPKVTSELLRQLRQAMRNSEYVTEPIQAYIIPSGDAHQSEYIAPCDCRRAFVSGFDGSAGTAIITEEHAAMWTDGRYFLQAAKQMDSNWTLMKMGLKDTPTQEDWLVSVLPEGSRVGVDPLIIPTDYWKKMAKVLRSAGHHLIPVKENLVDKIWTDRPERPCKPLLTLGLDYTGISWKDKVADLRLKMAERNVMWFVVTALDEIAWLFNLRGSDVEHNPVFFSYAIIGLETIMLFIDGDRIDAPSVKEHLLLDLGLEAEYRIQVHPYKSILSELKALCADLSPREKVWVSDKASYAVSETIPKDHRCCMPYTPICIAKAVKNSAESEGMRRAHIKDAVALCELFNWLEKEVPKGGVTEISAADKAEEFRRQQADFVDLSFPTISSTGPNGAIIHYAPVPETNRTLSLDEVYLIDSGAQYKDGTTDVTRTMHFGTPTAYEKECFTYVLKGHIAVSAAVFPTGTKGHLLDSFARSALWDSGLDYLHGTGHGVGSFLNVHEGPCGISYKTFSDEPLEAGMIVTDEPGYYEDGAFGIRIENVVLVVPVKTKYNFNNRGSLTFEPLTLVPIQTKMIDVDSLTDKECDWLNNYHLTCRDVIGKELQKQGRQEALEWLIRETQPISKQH
recombinant human PEPD, sequence (P12955 whole entry): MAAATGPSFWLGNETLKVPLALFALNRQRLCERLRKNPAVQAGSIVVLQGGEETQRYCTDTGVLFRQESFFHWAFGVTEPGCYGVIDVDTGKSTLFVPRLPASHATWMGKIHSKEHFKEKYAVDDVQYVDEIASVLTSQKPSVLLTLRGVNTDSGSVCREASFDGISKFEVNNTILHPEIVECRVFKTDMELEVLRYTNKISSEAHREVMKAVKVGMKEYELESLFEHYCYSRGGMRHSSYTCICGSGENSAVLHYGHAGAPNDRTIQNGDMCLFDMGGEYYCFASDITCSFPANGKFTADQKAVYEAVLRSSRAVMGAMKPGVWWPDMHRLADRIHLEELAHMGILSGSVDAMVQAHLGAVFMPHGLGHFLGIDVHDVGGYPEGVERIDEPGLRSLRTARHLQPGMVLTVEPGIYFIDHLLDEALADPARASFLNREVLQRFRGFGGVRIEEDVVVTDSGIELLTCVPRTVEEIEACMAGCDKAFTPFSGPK

Row | SMILES | cell death in N/TERT-1 keratinocytes (N/TERT-1 keratinocytes) | pyroptosis (LDH release and GSDMD cleavage) [1] | IC50 (recombinant human PEPD) [nM] | IC50 (XPNPEP1) [nM] | IC50 (MV4;11 WT cells) [nM] | IC50 (MV4;11 CASP1-/- cells) [nM] | lytic cell death by uptake of propidium iodide (OCI-AML2 cells)
1 | CC(C)[C@H](N)C(=O)N1CCC[C@H]1B(O)O [VbP, Val-boroPro, reference compound] | induced cell death | induced pyroptosis |  |  |  |  | 
2 | COC(=O)[C@@H](NC(=O)[C@@H]1CCCN1C(=O)[C@@H](O)[C@H](N)CC(C)C)C(C)C [CQ78, Methyl ((2S,3R)-3-amino-2-hydroxy-5-methylhexanoyl)-L-prolyl-L-valinate] |  |  | 1200 | 41000 | 450 | > 20000 | more rapid lytic cell death
